Where a name gives a salt, the structure may show the parent alone.
These molecules were tested on mice (hypoxic environment) (assay: Hypoxic survival test). Details: 100 mg/kg, intraperitoneal, 10% oxygen, 5 minutes.
Format: in vivo, mouse (Royal Hart)
Procedure: The hypoxic survival test is a useful in vivo test for measuring the effectiveness of central nervous system-acting drugs in enhancing survival in an hypoxic environment relative to the known parasympathomimetic agent physostigmine.
Drugs are tested by intraperitoneal injection of groups of mice 30 minutes prior to placing them in an hypoxic environment and measuring survival. The rationale of this test is that drugs which enhance survival under hypoxic conditions without concomitant depression or sedative side effects, do so by enhancing brain metabolism, i.e., by improving energy supply relative to demand and so preserving normal brain function under conditions of reduced energy metabolism. Considering the dependence of the brain on a constant supply of energy, drugs which have this property may have many far-reaching therapeutic indications, including aiding recovery from stroke and closed head injury and reducing the deleterious effects of age-related central nervous system deficits.
In the hypoxic survival test, groups of 20 Royal Hart mice (6 weeks of age) were injected intraperitoneally with a test compound in saline at various doses ranging from 1 to 200 mg/kg, 30 minutes prior to placing them in an hypoxic mixture (10% oxygen, 90% […]) and measuring survival after 5 minutes.
A control group of 20 mice was injected intraperitoneally with saline (0.01 ml/g of body weight) and processed as described above.
Another group of 20 mice was injected intraperitoneally with 0.125 mg/kg of physostigmine in saline and processed as described above.

**Q.** For COc1ccc(C(=O)N2CCN(CC(=O)N3CC=C(c4cccc(C(F)(F)F)c4)n4ncc(C#N)c43)CC2)cc1.Cl [Example 163, 4,5-Dihydro-4-[[4-(4-methoxybenzoyl)-1-piperazinyl]acetyl]-7-[3-(trifluoromethyl)phenyl]pyrazolo[1,5-a]pyrimidine-3-carbonitrile, monohydrochloride], which “% Survivors” value is on record?
**A.** The value was 25%.

Same assay, conditions: Mus musculus, ip, 5 min, 10 mg/kg, intraperitoneal, 10% oxygen, 5 minutes; read-out: % Survivors

**Q.** Which responders at 10 mg/kg does the source give for COc1cccc(CN2CCN(CC(=O)N3CC=C(c4ccccc4)n4ncc(C#N)c43)CC2)c1 [Example 150, 4,5-Dihydro-4-[[4-[(3-methoxyphenyl)methyl]-1-piperazinyl]acetyl]-7-phenylpyrazolo[1,5-a]pyrimidine-3-carbonitrile, dihydrochloride] here?
**A.** Its responders at 10 mg/kg is 45%.

**Q.** Which responders at 10 mg/kg does the source give for N#Cc1cnn2c1N(C(=O)CN1CCN(C3CCC3)CC1)CC=C2c1cccc(C(F)(F)F)c1 [Example 91, 4-[(4-Cyclobutyl-1-piperazinyl)acetyl]-4,5-dihydro-7-[3-(trifluoromethyl)phenyl]pyrazolo[1,5-a]pyrimidine-3-carbonitrile, dihydrochloride] here?
**A.** Its responders at 10 mg/kg is 55%.

**Q.** For NC(=O)c1cnn2c1N(C(=O)CN1CCN(Cc3ccccc3)CC1)CC=C2c1cccc(C(F)(F)F)c1 [Example 75, 4,5-Dihydro-4-[[4-(phenylmethyl)-1-piperazinyl]acetyl]-7-[3-(trifluoromethyl)phenyl]pyrazolo[1,5-a]pyrimidine-3-carboxamide], which responders at 10 mg/kg is on record?
**A.** Its responders at 10 mg/kg is 15%.

Same assay, conditions: Mus musculus, ip, 5 min, 50 mg/kg, intraperitoneal, 10% oxygen, 5 minutes; read-out: % Survivors

**Q.** Which responders at 50 mg/kg does the source give for CC1=C(c2cccc(Cl)c2)n2ncc(C#N)c2N(C(=O)CN2CCN(Cc3cccc(Cl)c3)CC2)C1 [Example 131, 7-(3-Chloroohenyl)-4-[[4-[(3-Chlorophenyl)methyl-1-piperazinyl]acetyl]4,5-dihydro-6-methylpyrazolo[1,5-a]pyrimidine-3-carbonitrile, dihydrochloride] here?
**A.** Its responders at 50 mg/kg is 73%.

Same assay, conditions: Mus musculus, ip, 5 min, 100 mg/kg, intraperitoneal, 10% oxygen, 5 minutes; read-out: % Survivors

**Q.** With CC1=C(c2cccc(Cl)c2)n2ncc(C#N)c2N(C(=O)CN2CCN(Cc3ccccc3F)CC2)C1 [Example 157, 7-(3-Chlorophenyl)-4-[[4-[(2-fluorophenyl)methyl]-1-piperazinyl]acetyl]-4,5-dihydro-6-methylpyrazolo[1,5-a]pyrimidine-3-carbonitrile, dihydrochloride] as the molecule, how does the responders at 100 mg/kg read?
**A.** Its responders at 100 mg/kg is 45%.

**Q.** How did the responders at 100 mg/kg turn out when N#Cc1cnn2c1N(C(=O)CN1CCN(C(=O)Nc3ccc(F)cc3F)CC1)CC=C2c1cccc(C(F)(F)F)c1 [Example 107] was run?
**A.** Its responders at 100 mg/kg is 20%.

**Q.** How did the responders at 100 mg/kg turn out when N#Cc1cnn2c1N(C(=O)CN1CCN(C(=O)Nc3ccc(Cl)c(C(F)(F)F)c3)CC1)CC=C2c1cccc(C(F)(F)F)c1 [Example 106, N-[4-Chloro-3-(trifluoromethyl)phenyl]-4-[2-[3-cyano-7-[3-(trifluoromethyl)phenyl)pyrazolo[1.5-a]pyrimidin-4(5H)-yl]-2-oxoethyl]-1-piperazinecarboxamide] was run?
**A.** Its responders at 100 mg/kg is 15%.

**Q.** With N#Cc1cnn2c1N(C(=O)CN1CCN(C(c3ccc(F)cc3)c3ccc(F)cc3)CC1)CC=C2c1cccc(C(F)(F)F)c1 [Example 88, 4-[[4-[Bis(4-Fluorophenyl)methyl]-1-piperazinyl]acetyl]-4,5-dihydro-7-[3-(trifluoromethyl)phenyl]pyrazolo[1,5-a]pyrimidine-3-carbonitrile, dihydrochloride] as the molecule, how does the responders at 100 mg/kg read?
**A.** Its responders at 100 mg/kg is 55%.

**Q.** With N#Cc1cnn2c1N(C(=O)CN1CCN(Cc3cccc(Cl)c3)CC1)CCC2c1cccc(C(F)(F)F)c1 (stereo not drawn) [Example 53, 4-[[4-[(3-Chlorophenyl)methyl]-1-piperazinyl]acetyl]-4,5,6,7-tetrahydro-7-[3-(trifluoromethyl)phenyl]pyrazolo[1,5-a]pyrimidine-3-carbonitrile] as the molecule, how does the responders at 100 mg/kg read?
**A.** The responders at 100 mg/kg was 15%.

**Q.** How did the responders at 100 mg/kg turn out when CC1=C(c2ccc(Cl)cc2)n2ncc(C#N)c2N(C(=O)CN2CCN(Cc3ccccc3)CC2)C1 [Example 114, 7-(4-Chlorophenyl)-4.5-dihydro-6-methyl-4[[4-(phenylmethyl)piperazinyllacetyllpyrazolo[1,5-a]pyrimidine-3-carbonitrile, dihydrochloride] was run?
**A.** Its responders at 100 mg/kg is 25%.

**Q.** How did the responders at 100 mg/kg turn out when COc1ccc(C(=O)N2CCN(CC(=O)N3CC=C(c4cccc(C(F)(F)F)c4)n4ncc(C#N)c43)CC2)cc1 [Example 162, 4,5-Dihydro-4-[[4-(4-methoxybenzoyl)-1-piperazinyl]acetyl]-7-[3-(trifluoromethyl)phenyl]pyrazolo[1,5-a]pyrimidine-3-carbonitrile] was run?
**A.** Its responders at 100 mg/kg is 45%.

**Q.** With CC1=C(c2cccc(Cl)c2)n2ncc(C#N)c2N(C(=O)CN2CCN(Cc3ccccc3)CC2)C1 [Example 113, 7-(3-Chlorophenyl)-4.5-dihydro-6-methyl-4-[[4-(phenylmethyl)piperazinyl]acetyl]pyrazolo[1,5-a]pyrimidine-3-carbonitrile, dihydrochloride] as the molecule, how does the responders at 100 mg/kg read?
**A.** Its responders at 100 mg/kg is 30%.

**Q.** For CC1C=C(c2cccc(C(F)(F)F)c2)n2ncc(C#N)c2N1C(=O)CN1CCN(Cc2ccccc2)CC1 (stereo not drawn) [Example 95, 4,5-Dihydro-5-methyl-4-[[4-(phenylmethyl)-1-piperazinyl]acetyl]-7-[3-(trifluoromethyl)phenyl]pyrazolo[1,5-a]pyrimidine-3-carbonitrile, dihydrochloride], which responders at 100 mg/kg is on record?
**A.** Its responders at 100 mg/kg is 43%.

**Q.** For CC1=C(c2cccc(Cl)c2)n2ncc(C#N)c2N(C(=O)CN2CCN(Cc3cccc(C(F)(F)F)c3)CC2)C1 [7-(3-Chlorophenyl)-4,5-dihydro-6-methyl-4-[[4-[[3-(trifluoromethyl)phenyl]methyl]-1-piperazinyl]acetyl]pyrazolo[1,5-a]pyrimidine-3-carbonitrile, sesquihydrochloride], which responders at 100 mg/kg is on record?
**A.** Its responders at 100 mg/kg is 35%.

**Q.** Cc1cccc(C2=CCN(C(=O)CN3CCN(Cc4ccccc4)CC3)c3c(C#N)cnn32)c1 [Example 149, 4,5-Dihydro-7-(3-methylphenyl)-4-[[4-(phenylmethyl)-1-piperazinyl]acetyl]pyrazolo[1,5-a]pyrimidine-3-carbonitrile, hydrochloride] was tested. Which responders at 100 mg/kg did it give?
**A.** Its responders at 100 mg/kg is 55%.

**Q.** For N#Cc1cnn2c1N(C(=O)CN1CCN(C(=O)OCc3ccccc3)CC1)CC=C2c1cccc(C(F)(F)F)c1 [Example 158, 4-[2-[3-Cyano-7-[3-(trifluoromethyl)phenyl]pyrazolo[1,5-a]pyrimidin-4(5H)-yl]-2-oxoethyl]-1-piperazinecarboxylic acid, phenylmethyl ester], which responders at 100 mg/kg is on record?
**A.** The responders at 100 mg/kg was 55%.

**Q.** With CC1=C(c2cccc(Cl)c2)n2ncc(C#N)c2N(C(=O)CN2CCN(Cc3cccc(Cl)c3)CC2)C1 [Example 131, 7-(3-Chloroohenyl)-4-[[4-[(3-Chlorophenyl)methyl-1-piperazinyl]acetyl]4,5-dihydro-6-methylpyrazolo[1,5-a]pyrimidine-3-carbonitrile, dihydrochloride] as the molecule, how does the responders at 100 mg/kg read?
**A.** The responders at 100 mg/kg was 77%.

**Q.** With N#Cc1cnn2c1N(C(=O)CN1CCN(C(=O)c3ccccc3)CC1)CC=C2c1cccc(C(F)(F)F)c1 [Example 68, 4-[[4-Benzoyl-1-piperazinyl)acetyl]-4,5-dihydro-7-[3-(trifluoromethyl)phenyl]pyrazolo[1,5-a]pyrimidine-3-carbonitrile] as the molecule, how does the responders at 100 mg/kg read?
**A.** The responders at 100 mg/kg was 95%.

Same assay, conditions: Mus musculus, ip, 5 min, 200 mg/kg, intraperitoneal, 10% oxygen, 5 minutes; read-out: % Survivors

**Q.** Which responders at 200 mg/kg does the source give for CC1=C(c2ccc(Cl)cc2)n2ncc(C#N)c2N(C(=O)CN2CCN(Cc3cccc(C(F)(F)F)c3)CC2)C1 [Example 142, 7-(4-Chlorophenyl)-4,5-dihydro-6-methyl-4-[[4-[[3-(trifluoromethyl)phenyl]methyl-1-piperazinyl]acetyl]pyrazolo[1,5-a]pyrimidine-3-carbonitrile, dihydrochloride] here?
**A.** Its responders at 200 mg/kg is 37.5%.

**Q.** Which responders at 200 mg/kg does the source give for CCC1=C(c2cccc(C(F)(F)F)c2)n2ncc(C#N)c2N(C(=O)CN2CCN(Cc3ccccc3)CC2)C1 [Example 140, 4,5-Dihydro-6-ethyl-4[[4-(phenylmethyl)-1-piperazinyl]acetyl]7-[3-(trifluoromethyl)phenyl]pyrazolo[1,5-a]pyrimidine-3-carbonitrile] here?
**A.** Its responders at 200 mg/kg is 42%.

What follows are molecules tested on Spontaneously Hypertensive Rats (assay: Hypotensive activity: mean arterial blood pressure in spontaneously hypertensive rats). Details: SHR, gavage, 100 mg/kg or less, two doses 24 h apart, measured at 28 hours; average MABP of rats used 160±1.5 mm.
Format: in vivo, rat (Okamoto strain, male)
Procedure: The novel compounds of the invention are active hypotensive agents at nontoxic doses when administered to mammals. These compounds were tested for hypotensive activity by the method of P. S. Chan and D. W. Poorvin, Clinical and Experimental Hypertension, (6), 817-830 (1979). Male, 16 week old, spontaneously hypertensive rats of the Okamoto strain (Taconic Farms, Germantown, N.Y.) having an average means arterial blood pressure of 160±1.5 mm of mercury are used in the test. A rat is dosed by gavage with a test compound, suspended in 2% pre-boiled starch at a concentration of 50 mg/ml, at a dose of 100 mg/kg of body weight or less, with 0.9% sodium chloride loading at a dose of 25 ml/kg of body weight. A second identical dose of the test compound, without sodium chloride loading is given 24 hours later. At 28 hours after the initial dose the mean arterial blood pressure is measured by the method of Chan and Poorvin vide supra.

**Q.** Which “MABP/mmHg (mean arterial blood pressure)” value does the source give for N#Cc1cnn2c1N(C(=O)CN1CCN(c3ccccc3)CC1)CC=C2c1cccc(C(F)(F)F)c1 [Example 25, 4,5-Dihydro-4-[(4-phenyl-1-piperazinyl)acetyl]-7-[3-(trifluoromethyl)phenyl]pyrazolo[1,5-a]pyrimidine-3-carbonitrile] here?
**A.** The value was 137 mmHg.

**Q.** How did the “MABP/mmHg (mean arterial blood pressure)” value turn out when N#Cc1cnn2c1N(C(=O)CCN1CCN(Cc3ccc(Cl)cc3)CC1)CC=C2c1cccc(C(F)(F)F)c1 [Example 35, 4-[3-[4-[(Chlorophenyl)methyl]-1-piperazinyl]-1-oxopropyl]-4,5-dihydro-7-[3-(trifluoromethyl)phenyl]pyrazolo[1,5-a]pyrimidine-3-carbonitrile] was run?
**A.** The value was 138 mmHg.

**Q.** Which “MABP/mmHg (mean arterial blood pressure)” value does the source give for N#Cc1cnn2c1N(C(=O)CN1CCN(c3ncccn3)CC1)CC=C2c1cccc(C(F)(F)F)c1 [Example 28, 4,5-Dihydro-4-[[4-(2-pyrimidinyl)-1-piperazinyl]acetyl]-7-[3-(trifluoromethyl)phenyl]pyrazolo[1,5-a]pyrimidine-3-carbonitrile] here?
**A.** The value was 127 mmHg.

Source: patent US4963553A, “4-[(substituted) alkylcarbonyl]-4,5-dihydro- and -4,5,6,7-tetrahydro-7-[(substituted)phenyl]pyrazolo[1,5-a]pyrimidines” (American Cyanamid Co., priority 1988, dated 1990)
